Columns and labels:
BirA [1] = molecular target: T1, BirA (Escherichia coli, UniProt P06709); settings: cited from earlier work
CRBN E3 ligase [2] = experiment: Ubiquitin biotinylation MS profiling of multikinase PROTACs in HEK293T CRBN-/- CRBN-BirA cells; format: cell-based, human; settings: A3-HA-Ub; PROTAC 1 μM, 45 minutes after carfilzomib; FIGS. 13A-13D
From the text: In this example, PROTAC® (proteolysis-targeting chimera) molecules that target kinases were created by linking certain kinase degraders with IMiDs analogs. (FIG. 12). PROTAC®s recruit a target protein to be in proximity to an E3 ubiquitin ligase to trigger protein degradation. The ubiquitinated targets of four CRBN-recruiting multi-kinase PROTAC®s were generated to contain the following multikinase degraders: SK-3-91, DB0646, SB1-G-187 and WH-10417-099. These four degraders can collectively induce degradation of a large number of distinct kinases (>125 distinct kinases). FIGS. 13A-13D show the results of a mass spectrometry experiment in which protein substrates susceptible to induced ubiquitination by the abovementioned four multikinase degraders were identified, respectively. These experiments were performed in HEK293T^CRBN−/− cells lentivirally engineered to express CRBN-BirA and transiently expressing A3-HA-Ub. While cultured in biotin-free medium, the cells were pre-treated with carfilzomib (carf; 0.4 μM) for 1 hour, and then were either treated or untreated with the kinase-targeting PROTAC®s (1 μM) for another 45 minutes. […] Enrichment of biotinylated species by streptavidin-coated beads, protein digestion, and protein identification and quantification by mass spectrometry were performed exactly as described in Example 3 and 4. Triplicate samples allowed for statistical analysis of differentially enriched proteins, represented by log 2-fold-change (FC) between the PROTAC®-treated group and the DMSO-treated group on the x-axis, and significance (p-value estimated by limma) on the y-axis in the figures. FIGS. 13A-13D present the induced ubiquitinated substrates for SK-3-91, DB0646, SB1-G-187 and WH-10417-099, respectively, shown and labeled in the upper right quadrant of the plot.

VHL E3 ligase [3] = molecular target: T2, VHL E3 ligase (UniProt P06709+P40337); experiment: Ubiquitin biotinylation MS profiling of HDAC degrader in 293T VHL-BirA cells; format: cell-based, human; settings: A3-HA-Ub, 1 μM, 45 minutes, FIG. 14B
T2 construct: expressed in transfected cells
T2 sequence (P40337+P06709 fused): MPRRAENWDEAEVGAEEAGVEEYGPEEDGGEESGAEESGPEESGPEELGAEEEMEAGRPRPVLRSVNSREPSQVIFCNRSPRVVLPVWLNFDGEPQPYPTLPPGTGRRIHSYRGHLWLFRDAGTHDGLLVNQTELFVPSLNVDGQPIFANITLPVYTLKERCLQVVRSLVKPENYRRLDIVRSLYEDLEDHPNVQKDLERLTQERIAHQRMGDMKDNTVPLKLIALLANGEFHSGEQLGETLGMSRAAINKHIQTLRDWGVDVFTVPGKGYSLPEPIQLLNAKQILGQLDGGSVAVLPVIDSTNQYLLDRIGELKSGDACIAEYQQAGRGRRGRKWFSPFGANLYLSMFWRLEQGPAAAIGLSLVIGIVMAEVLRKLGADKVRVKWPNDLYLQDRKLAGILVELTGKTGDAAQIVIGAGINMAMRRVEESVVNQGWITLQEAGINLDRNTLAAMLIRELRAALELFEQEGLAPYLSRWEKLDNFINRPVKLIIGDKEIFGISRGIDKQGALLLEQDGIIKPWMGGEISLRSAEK
T2 sequence (Q15369 whole entry, further chain): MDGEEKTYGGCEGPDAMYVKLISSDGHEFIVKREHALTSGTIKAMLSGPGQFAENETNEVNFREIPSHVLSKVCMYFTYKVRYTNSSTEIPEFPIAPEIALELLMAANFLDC
T2 sequence (Q15370 whole entry, further chain): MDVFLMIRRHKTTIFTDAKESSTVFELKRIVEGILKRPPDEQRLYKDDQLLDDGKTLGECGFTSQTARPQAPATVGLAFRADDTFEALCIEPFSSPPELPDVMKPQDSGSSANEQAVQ
Procedure: (§1) The experiments involving CRBN E3 ligase were performed in HEK293T^CRBN−/− cells lentivirally engineered to express CRBN-BirA and transiently expressing A3-HA-Ub. The HDAC degrader XY-07-097 was used in the experiments using the CRBN E3 ligase. The experiments involving VHL E3 ligase were performed in HEK293T cells lentivirally engineered to express VHL-BirA and transiently expressing A3-HA-Ub. The HDAC degrader XY-07-187 was used in the experiments using the VHL E3 ligase. […] Enrichment of biotinylated species by streptavidin-coated beads, protein digestion, and protein identification and quantification by mass spectrometry were performed exactly as described in Example 3 and 4. Triplicate samples allowed for statistical analysis of differentially enriched proteins, represented by log 2-fold-change (FC) between the PROTAC®-treated group and the DMSO-treated group on the x-axis, and significance (p-value estimated by limma) on the y-axis in the figures.
(§2) Desalted peptides were dried in a vacuum-centrifuged and reconstituted in 0.1% formic acid for LC-MS analysis. Data were collected using a TimsTOF Pro2 (Bruker Daltonics, Bremen, Germany) coupled to a nanoElute LC pump (Bruker Daltonics, Bremen, Germany) via a CaptiveSpray nano-electrospray source. […]

VHL E3 ligase [4] = molecular target: T2, VHL E3 ligase; experiment: Ubiquitin biotinylation MS profiling of BET/PTK2 degraders in VHL-BirA cells; format: cell-based, human; settings: A3-HA-Ub, 1 μM, 1 hour, FIG. 10
Procedure: (§3) Enrichment of biotinylated species by streptavidin-coated beads, protein digestion, and protein identification and quantification by mass spectrometry were performed exactly as described in Examples 3 and 4. Triplicate samples allowed for statistical analysis of differentially enriched proteins, represented by log 2-fold-change (FC) between the PROTAC®-treated group and the DMSO-treated group on the x-axis, and significance (p-value estimated by limma) on the y-axis in the figures.

PTK2 = PTK2 (Homo sapiens, UniProt Q05397); settings: cited from earlier work
CRBN E3 ligase [5] = experiment: Ubiquitin biotinylation MS profiling of BET/PTK2 degraders in CRBN-BirA cells; format: cell-based, human; settings: A3-HA-Ub, 1 μM, 1 hour, FIG. 10
Procedure: as §3

GSPT1 = GSPT1 degradation by Western blot in HEK293T cells and CRBN-/- derivatives; format: cell-based, human; settings: carfilzomib 0.4 μM 1 hour before CC-885 1 μM
Procedure: However, instead of assessing transiently-expressed V5-tagged IKZF1, an endogenous neo-substrate of CRBN, namely, GSPT1, was assessed. […] Following incubation with the components and added agents, the cells were lysed, and streptavidin-coated beads were used to capture from the cell lysate biotinylated, ubiquitinated proteins, e.g., the endogenous GSPT1 substrate. The biotinylated proteins eluted from the beads were subjected to Western blot analyses.

VHL E3 ligase [6] = molecular target: T2, VHL E3 ligase; experiment: Ubiquitin biotinylation MS with VHL inhibitor in A375 cells expressing VHL-BirA; format: cell-based, human; settings: MLN4924 pre-treatment and washout, VH298 30 minutes, FIG. 18
Procedure: Experiments were conducted using the methods and systems described herein in conjunction with an inhibitor of an E3 ligase utilized in the experiment. […] The experiments were performed in A375 cells that transiently expressed A3-HA-Ub and VHL-BirA. While cultured in biotin-free medium, the cells were pre-treated with MLN4924 (1 μM) for 2 hours. Thereafter, MLN4924 was washed out of the cell culture with one PBS wash and was replaced with biotin-free medium.
Next, the cells were lysed and kept on ice to terminate the reaction. Enrichment of biotinylated species by streptavidin-coated beads, protein digestion, and protein identification and quantification by mass spectrometry were performed exactly as described in Examples 3 and 4. The samples were analyzed in triplicate to allow for statistical analysis of differentially enriched proteins, represented by log 2-fold-change between the VH298-treated E3 ligase group and the wild-type E3 ligase group on the y-axis, and significance (p-value estimated by limma) on the x-axis in the figures. […] A decrease in biotinylation owing to the inhibitor treatment was observed. Consistent with the expected actions of VHL, HIF1A was identified as a substrate.

V5-IKZF1 = molecular target: T3, V5-IKZF1 (Homo sapiens, UniProt Q13422+Q96SW2); experiment: Streptavidin pulldown and Western blot of biotinylated ubiquitinated V5-IKZF1 in 293T CRBN-/- CRBN-BirA cells; format: cell-based
T3 construct: expressed in transfected cells; host or cells: 293T CRBN-/- cells stably expressing CRBN-BirA; pRK5 vector, transient
T3 sequence (Q13422 whole entry): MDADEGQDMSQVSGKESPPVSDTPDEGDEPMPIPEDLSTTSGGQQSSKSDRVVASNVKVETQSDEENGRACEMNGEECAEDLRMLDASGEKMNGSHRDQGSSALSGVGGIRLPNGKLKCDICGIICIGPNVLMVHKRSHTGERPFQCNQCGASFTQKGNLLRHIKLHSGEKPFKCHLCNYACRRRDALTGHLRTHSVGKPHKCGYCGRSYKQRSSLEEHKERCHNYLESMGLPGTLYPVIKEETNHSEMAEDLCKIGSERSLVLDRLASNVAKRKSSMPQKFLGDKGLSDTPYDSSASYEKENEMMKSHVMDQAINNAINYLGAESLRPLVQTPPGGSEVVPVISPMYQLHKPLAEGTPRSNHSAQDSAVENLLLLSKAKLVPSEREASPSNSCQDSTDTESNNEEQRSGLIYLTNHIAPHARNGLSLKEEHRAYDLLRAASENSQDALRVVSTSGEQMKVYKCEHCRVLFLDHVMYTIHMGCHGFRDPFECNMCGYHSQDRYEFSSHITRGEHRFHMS
T3 sequence (Q96SW2 whole entry): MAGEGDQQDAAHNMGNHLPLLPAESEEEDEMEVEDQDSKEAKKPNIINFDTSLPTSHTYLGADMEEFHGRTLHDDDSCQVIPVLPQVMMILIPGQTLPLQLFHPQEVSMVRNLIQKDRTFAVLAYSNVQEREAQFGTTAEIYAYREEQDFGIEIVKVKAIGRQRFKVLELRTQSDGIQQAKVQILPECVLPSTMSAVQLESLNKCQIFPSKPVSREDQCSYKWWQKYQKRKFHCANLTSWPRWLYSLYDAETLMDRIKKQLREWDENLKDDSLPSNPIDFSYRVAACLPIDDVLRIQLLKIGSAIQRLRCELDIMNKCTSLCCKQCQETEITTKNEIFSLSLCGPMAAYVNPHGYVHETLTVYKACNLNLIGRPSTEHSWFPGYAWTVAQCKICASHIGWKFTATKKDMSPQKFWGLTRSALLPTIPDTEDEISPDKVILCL
Procedure: One day (approximately 24 hours) after the transfection, DMSO (untreated) or carfilzomib (0.4 μM), (“carf”), was added to the cells for 1 hour.
A portion of the lysates (referred to as inputs) were saved for Western blotting analyses. […] The eluates were analyzed by SDS-PAGE gel electrophoresis and Western blotting analyses.
The preparation of cellular lysate was as described above for Cell Lysis, except that the RIPA buffer was supplemented with COMPLETE™ EDTA-free protease inhibitor cocktail (Roche; 04693159001; 1 tablet per 10 ml of buffer), benzonase (Millipore; E1014; 1 μl per 10 ml of buffer), 1.5 mM MgCl2, 1 mM EGTA, and 10 mM NEM (N-ethylmaleimide). For each sample, 1 ml of 3 mg/ml lysate was rotated overnight at 4° C. with 50 μl of resuspended streptavidin Sepharose beads (CYTIVA™; 17511301), which were pre-washed with RIPA lysis buffer 3 times. For all steps that required pelleting of beads, centrifugation was performed at 400×g for 1 minute. On the next day, streptavidin beads were pelleted, and the supernatant (a.k.a. flow-through) was either saved for analysis by Western blotting or was discarded. Streptavidin beads were then washed two times with 1 ml of 2% SDS wash buffer (2% SDS, 25 mM Tris-HCl, pH 7.5), and three times with 0.5-1 ml of 2M urea wash buffer (2M urea, 50 mM Tris-HCl, pH 8). Between each wash, the beads were rotated at room temperature for at least 5 minutes. During the last wash, the beads and the washing buffer were transferred to a new microfuge tube. […] For mass spectrometry-based analysis, the procedures described in On-bead Digestion below were used.
On the next day, the cells were transfected using pRK5-Avi-HA-ubiquitin or pRK5-A3-HA-ubiquitin in serum-free DMEM.

CRBN E3 ligase [7] = experiment: Ubiquitin biotinylation MS profiling of HDAC degrader in 293T CRBN-/- CRBN-BirA cells; format: cell-based, human; settings: CRBN-BirA, A3-HA-Ub; 1 μM, 45 minutes; FIG. 14A
Procedure: as §1, §2

BET bromodomains = settings: degrader of BET bromodomains; cited from earlier work
BirA [8] = molecular target: T1, BirA
[9] = molecular target: T4, DCAF15 E3 ubiquitin ligase (UniProt P06709+Q14498+Q66K64); experiment: Ubiquitin biotinylation MS profiling of molecular glue in HEK293T DCAF15-BirA cells; format: cell-based, human; settings: A3-HA-Ub, 10 μM, 1 hour, FIG. 11
T4 construct: expressed in transfected cells
T4 sequence (Q14498 whole entry): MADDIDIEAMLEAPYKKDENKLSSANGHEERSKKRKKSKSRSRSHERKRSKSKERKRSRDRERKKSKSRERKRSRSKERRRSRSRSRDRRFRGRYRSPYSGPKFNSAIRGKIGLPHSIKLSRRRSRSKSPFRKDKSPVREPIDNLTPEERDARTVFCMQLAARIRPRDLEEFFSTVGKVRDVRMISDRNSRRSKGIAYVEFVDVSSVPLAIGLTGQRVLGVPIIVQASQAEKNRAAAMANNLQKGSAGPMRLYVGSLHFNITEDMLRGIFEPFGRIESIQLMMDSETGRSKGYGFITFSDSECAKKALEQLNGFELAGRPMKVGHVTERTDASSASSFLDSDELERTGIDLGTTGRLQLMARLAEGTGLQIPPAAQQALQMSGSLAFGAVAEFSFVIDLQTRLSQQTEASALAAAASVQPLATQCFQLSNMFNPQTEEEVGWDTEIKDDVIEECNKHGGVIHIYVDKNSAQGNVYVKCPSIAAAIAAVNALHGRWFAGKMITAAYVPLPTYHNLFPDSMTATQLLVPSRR
T4 sequence (Q16531 whole entry, further chain): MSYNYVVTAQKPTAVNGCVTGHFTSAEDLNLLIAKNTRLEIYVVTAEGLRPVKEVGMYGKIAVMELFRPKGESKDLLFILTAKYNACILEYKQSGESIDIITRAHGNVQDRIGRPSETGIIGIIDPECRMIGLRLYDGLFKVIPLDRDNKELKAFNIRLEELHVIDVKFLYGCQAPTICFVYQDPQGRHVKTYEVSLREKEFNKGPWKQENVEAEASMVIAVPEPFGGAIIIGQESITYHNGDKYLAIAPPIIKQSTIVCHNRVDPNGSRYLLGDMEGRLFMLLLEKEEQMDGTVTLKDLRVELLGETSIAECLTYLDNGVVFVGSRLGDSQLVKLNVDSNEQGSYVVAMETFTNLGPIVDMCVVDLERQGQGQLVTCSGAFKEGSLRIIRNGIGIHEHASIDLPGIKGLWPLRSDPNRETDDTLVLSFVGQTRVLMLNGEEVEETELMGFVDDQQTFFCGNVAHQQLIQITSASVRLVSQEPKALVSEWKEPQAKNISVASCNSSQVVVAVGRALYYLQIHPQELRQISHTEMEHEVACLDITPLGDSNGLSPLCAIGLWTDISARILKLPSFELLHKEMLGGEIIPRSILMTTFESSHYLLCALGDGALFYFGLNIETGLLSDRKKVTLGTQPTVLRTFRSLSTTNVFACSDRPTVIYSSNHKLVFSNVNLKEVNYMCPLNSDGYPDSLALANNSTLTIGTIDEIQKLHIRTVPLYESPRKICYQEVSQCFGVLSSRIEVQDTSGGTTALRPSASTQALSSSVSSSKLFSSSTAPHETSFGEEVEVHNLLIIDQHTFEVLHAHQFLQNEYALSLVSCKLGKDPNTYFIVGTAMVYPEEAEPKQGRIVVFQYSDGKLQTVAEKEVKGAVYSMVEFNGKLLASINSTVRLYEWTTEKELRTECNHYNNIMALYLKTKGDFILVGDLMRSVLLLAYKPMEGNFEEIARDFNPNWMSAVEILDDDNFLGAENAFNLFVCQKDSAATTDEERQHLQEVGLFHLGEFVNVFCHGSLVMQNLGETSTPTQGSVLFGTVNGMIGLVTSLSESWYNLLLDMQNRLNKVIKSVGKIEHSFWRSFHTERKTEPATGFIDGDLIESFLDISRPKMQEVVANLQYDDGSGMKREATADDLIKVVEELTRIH
T4 sequence (Q66K64+P06709 fused): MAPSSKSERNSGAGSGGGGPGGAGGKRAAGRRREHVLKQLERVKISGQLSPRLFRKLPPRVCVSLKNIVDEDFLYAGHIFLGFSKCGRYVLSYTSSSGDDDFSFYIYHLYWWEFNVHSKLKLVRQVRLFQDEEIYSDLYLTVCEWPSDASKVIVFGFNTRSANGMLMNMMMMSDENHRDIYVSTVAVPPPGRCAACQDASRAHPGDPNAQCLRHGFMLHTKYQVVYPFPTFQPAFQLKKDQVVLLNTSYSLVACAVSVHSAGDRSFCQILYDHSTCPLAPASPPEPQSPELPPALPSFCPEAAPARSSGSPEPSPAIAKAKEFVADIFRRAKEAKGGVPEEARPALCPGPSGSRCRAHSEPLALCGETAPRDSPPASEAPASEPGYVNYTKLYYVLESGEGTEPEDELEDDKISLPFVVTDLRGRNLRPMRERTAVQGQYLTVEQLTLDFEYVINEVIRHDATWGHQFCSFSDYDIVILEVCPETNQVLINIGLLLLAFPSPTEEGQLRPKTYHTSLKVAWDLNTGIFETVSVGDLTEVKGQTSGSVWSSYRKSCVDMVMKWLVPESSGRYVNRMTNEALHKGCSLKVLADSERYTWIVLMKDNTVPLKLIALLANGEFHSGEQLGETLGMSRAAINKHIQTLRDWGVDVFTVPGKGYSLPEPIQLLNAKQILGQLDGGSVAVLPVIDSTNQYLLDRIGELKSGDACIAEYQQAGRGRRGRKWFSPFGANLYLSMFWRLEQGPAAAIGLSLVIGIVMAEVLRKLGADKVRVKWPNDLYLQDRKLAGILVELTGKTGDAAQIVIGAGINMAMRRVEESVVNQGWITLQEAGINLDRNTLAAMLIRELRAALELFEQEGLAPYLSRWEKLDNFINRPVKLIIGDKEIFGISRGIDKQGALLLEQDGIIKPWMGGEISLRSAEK
Procedure: The protocol used in this experiment is the same as that described in Example 6 above, except that the system was evaluated in a HEK293T cell line lentivirally engineered to express DCAF15-BirA and transiently expressing A3-HA-Ub. While cultured in biotin-free medium, the cells were pre-treated with carfilzomib (carf; 0.4 μM) for 1 hour, and then were either treated or untreated with E7820 (10 μM) for another hour. […] Enrichment of biotinylated species by streptavidin-coated beads, protein digestion, and protein identification and quantification by mass spectrometry were performed exactly as described in Examples 3 and 4. Triplicate samples allowed for statistical analysis of differentially enriched proteins, represented by log 2-fold-change (FC) between the E7820-treated group and the DMSO-treated group on the x-axis, and significance (p-value estimated by limma) on the y-axis in the figures. […] Consistent with the expected action of the E7820 glue in the system, the induced ubiquitinated protein RBM39/CAPERα was detected as the target of the E7820 sulfonamide, based on binding activity or protein degradation.

T1 sequence (P06709 whole entry): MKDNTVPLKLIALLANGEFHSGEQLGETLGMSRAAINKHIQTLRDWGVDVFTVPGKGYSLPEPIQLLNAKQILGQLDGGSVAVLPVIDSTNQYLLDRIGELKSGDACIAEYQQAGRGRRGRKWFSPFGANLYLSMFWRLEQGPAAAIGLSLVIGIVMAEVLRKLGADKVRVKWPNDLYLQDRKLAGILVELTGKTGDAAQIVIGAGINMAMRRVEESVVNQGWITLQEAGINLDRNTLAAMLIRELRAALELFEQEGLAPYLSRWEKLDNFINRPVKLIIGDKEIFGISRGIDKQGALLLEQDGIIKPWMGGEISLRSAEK

GLNDIFEAQKIEWHE [Avi-Tag]
Km (BirA [1]): 25 µM

CC(C)S(=O)(=O)c1ccccc1Nc1nc(Nc2ccc(N3CCN(CCOCCNC(=O)CNc4cccc5c4C(=O)N(C4CCC(=O)NC4=O)C5=O)CC3)cc2)ncc1Cl (centres unmarked) [SK-3-91]
Induced ubiquitinated proteins versus DMSO (CRBN E3 ligase [2]): the majority of the induced ubiquitinated proteins detected were kinase targets

Cc1ccc(C(=O)Nc2ccc(CN3CCN(CCCOCCOCCOCCNC(=O)COc4cccc5c4C(=O)N(C4CCC(=O)NC4=O)C5=O)CC3)c(C(F)(F)F)c2)cc1C#Cc1cnc2cccnn12 (centres unmarked) [SB1-G-187]
Induced ubiquitinated proteins versus DMSO (CRBN E3 ligase [2]): the majority of the induced ubiquitinated proteins detected were kinase targets

Cc1ncsc1-c1ccc(CNC(=O)[C@@H]2C[C@@H](O)CN2C(=O)C(NC(=O)C2(F)CC2)C(C)(C)C)c(OCCCCCN(CCc2c[nH]c3ccccc23)Cc2ccc(/C=C/C(=O)NO)cc2)c1 (some centres unmarked) [XY-07-187]
Induced ubiquitinated HDAC substrates versus DMSO (VHL E3 ligase [3]): HDAC1, HDAC2, HDAC6, and HDAC8

Cc1ncsc1-c1ccc([C@H](C)NC(=O)[C@@H]2C[C@@H](O)CN2C(=O)[C@@H](NC(=O)COCCCOCCNC(=O)C[C@@H]2N=C(c3ccc(Cl)cc3)c3c(sc(C)c3C)-n3c(C)nnc32)C(C)(C)C)cc1 [ARV-771]
Induced ubiquitinated substrates versus DMSO (VHL E3 ligase [4]): BRD2, BRD3, BRD4

Cc1ccc(NC(=O)c2cccc(C(F)(F)F)c2)cc1N1Cc2cnc(Nc3ccc(N4CCN(Cc5cn(CCCCCOc6cccc7c6C(=O)N(C6CCC(=O)NC6=O)C7=O)nn5)CC4)nc3)nc2N(C)C1=O (centres unmarked) [DB0646]
Induced ubiquitinated proteins versus DMSO (CRBN E3 ligase [2]): the majority of the induced ubiquitinated proteins detected were kinase targets

COc1cc(C(=O)NCCOCCOCCOCCC(=O)Nc2cccc3c2C(=O)N(C2CCC(=O)NC2=O)C3=O)ccc1Nc1ncc(C(F)(F)F)c(Oc2cccc3c2C(=O)CC3)n1 (centres unmarked) [BI-3663]
IC50 (PTK2): 18 nM | Induced ubiquitinated substrates versus DMSO (CRBN E3 ligase [5]): PTK2

CC(C)C[C@H](NC(=O)[C@H](CCc1ccccc1)NC(=O)CN1CCOCC1)C(=O)N[C@@H](Cc1ccccc1)C(=O)N[C@@H](CC(C)C)C(=O)[C@@]1(C)CO1 [carfilzomib]
Rescue of CC-885-induced GSPT1 degradation (GSPT1): partially rescued

Cc1ncsc1-c1ccc(CNC(=O)[C@@H]2C[C@@H](O)CN2C(=O)[C@@H](NC(=O)C2(C#N)CC2)C(C)(C)C)cc1 [VH298]
VHL substrate revealed by decrease in biotinylation owing to the inhibitor treatment (VHL E3 ligase [6]): HIF1A

Nc1cccc2c1C(=O)N(C1CCC(=O)NC1=O)C2=O (centres unmarked) [pomalidomide]
Induced ubiquitination of IKZF1 by E3 ligase CRBN (V5-IKZF1): showed pomalidomide-induced ubiquitination of IKZF1 | Mono- and poly-ubiquitinated V5-IKZF1 captured by streptavidin beads (V5-IKZF1): increased amount | Ubiquitinated V5-IKZF1 captured by streptavidin beads compared with DMSO (V5-IKZF1): approximately 3.9 fold

O=C(/C=C/c1ccc(CN(CCCCCNc2cccc3c2C(=O)N(C2CCC(=O)NC2=O)C3=O)CCc2c[nH]c3ccccc23)cc1)NO (centres unmarked) [XY-07-097]
Induced ubiquitinated HDAC substrates versus DMSO (CRBN E3 ligase [7]): HDAC2, HDAC6, and HDAC8

Cc1sc2c(c1C)C(c1ccc(Cl)cc1)=N[C@@H](CC(=O)NCCCCCCCCNC(=O)COc1cccc3c1C(=O)N(C1CCC(=O)NC1=O)C3=O)c1nnc(C)n1-2 (some centres unmarked) [dBET6]
IC50 (BET bromodomains): ~10 nM | Induced ubiquitinated substrates versus DMSO (CRBN E3 ligase [5]): BRD2, BRD3, BRD4

GLNDIFEAQKIE [A3-Tag]
Increase in Km relative to Avi-Tag (BirA [8]): ~14 fold | Km (BirA [1]): 345 µM

COc1cc(C(=O)NCCOCCOCCOCC(=O)N[C@H](C(=O)N2C[C@H](O)C[C@H]2C(=O)NCc2ccc(-c3scnc3C)cc2)C(C)(C)C)ccc1Nc1ncc(C(F)(F)F)c(Oc2cccc3c2C(=O)CC3)n1 [BI-0319]
Induced ubiquitinated substrates versus DMSO (VHL E3 ligase [4]): PTK2

Cc1ccc(NS(=O)(=O)c2cccc(C#N)c2)c2[nH]cc(C#N)c12 [E7820]
Induced ubiquitinated substrate versus DMSO [9]: RBM39/CAPERα

Source: patent US20250084453A1, “SYSTEMS, COMPOSITIONS AND METHODS FOR IDENTIFYING E3 LIGASE SUBSTRATES BY UBIQUITIN BIOTINYLATION” (The Broad Institute, Inc., priority 2022, published 2025)
